Assay results taken from patent publication US20250340863A1, “POLYPEPTIDE-ENCODED LIBRARY AND SCREENING METHOD USING SAME” (WHOLESOME FUTURE LIMITED, priority 2022, published 2025).

Target: T1, HDAC6 (Homo sapiens, UniProt Q9UBN7)
T1 construct: made in house; host or cells: E. coli BL21 (DE3), pET-28a plasmid
T1 sequence (Q9UBN7 1-1215): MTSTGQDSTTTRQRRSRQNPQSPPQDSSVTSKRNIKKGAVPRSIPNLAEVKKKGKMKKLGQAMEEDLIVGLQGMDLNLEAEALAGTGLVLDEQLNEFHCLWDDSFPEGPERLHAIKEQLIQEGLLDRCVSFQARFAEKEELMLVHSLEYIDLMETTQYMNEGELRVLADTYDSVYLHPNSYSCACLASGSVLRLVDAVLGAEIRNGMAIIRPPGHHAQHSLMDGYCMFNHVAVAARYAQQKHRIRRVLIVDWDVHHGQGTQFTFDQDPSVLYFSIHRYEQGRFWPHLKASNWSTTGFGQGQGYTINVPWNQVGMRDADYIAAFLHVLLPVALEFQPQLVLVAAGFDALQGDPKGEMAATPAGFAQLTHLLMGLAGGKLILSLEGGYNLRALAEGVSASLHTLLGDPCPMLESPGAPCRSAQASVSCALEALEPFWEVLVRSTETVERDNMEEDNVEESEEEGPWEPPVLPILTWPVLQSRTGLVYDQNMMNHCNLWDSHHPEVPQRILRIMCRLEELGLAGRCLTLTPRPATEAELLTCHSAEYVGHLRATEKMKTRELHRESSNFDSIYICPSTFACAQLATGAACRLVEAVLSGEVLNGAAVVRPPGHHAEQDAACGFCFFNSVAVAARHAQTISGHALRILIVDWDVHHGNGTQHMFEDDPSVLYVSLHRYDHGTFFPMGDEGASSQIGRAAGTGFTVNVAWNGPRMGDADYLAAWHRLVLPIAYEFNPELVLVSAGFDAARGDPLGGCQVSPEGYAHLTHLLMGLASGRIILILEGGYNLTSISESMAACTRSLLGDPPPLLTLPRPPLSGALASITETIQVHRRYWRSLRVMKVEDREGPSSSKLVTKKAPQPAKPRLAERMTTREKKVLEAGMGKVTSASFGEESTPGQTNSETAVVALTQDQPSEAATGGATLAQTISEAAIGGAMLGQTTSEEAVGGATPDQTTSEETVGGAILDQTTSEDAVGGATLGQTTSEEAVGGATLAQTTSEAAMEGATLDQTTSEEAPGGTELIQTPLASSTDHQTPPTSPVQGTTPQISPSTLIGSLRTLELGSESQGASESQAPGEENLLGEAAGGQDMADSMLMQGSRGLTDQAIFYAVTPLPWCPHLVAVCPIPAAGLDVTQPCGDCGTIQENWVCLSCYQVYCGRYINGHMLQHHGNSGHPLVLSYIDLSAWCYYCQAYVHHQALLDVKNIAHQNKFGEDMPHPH
Assay: HDAC6 enzyme inhibition, fluorescence assay
Type: biochemical
Conditions: for IC50: 7 concentrations, 4-fold dilution from 250 nM, 4 hours substrate incubation at room temperature; for Hill Slope: Hill slope of fitted dose-effect curve (GraphPad Prism); for Emax: top of fitted dose-effect curve of inhibition rate (GraphPad Prism)
Method: The compounds to be tested were balanced to room temperature, and the compounds were diluted 4 times with DMSO in a 384-well plate, with a starting working concentration of 250 nM and a total of 7 concentration gradients. 250 nl of the diluted drug solution was transferred to the 384-well reaction plate using Echo 550, where 250 nl of DMSO was transferred to the control wells Max and Min wells: the HDAC6 enzyme stock solution was diluted to 1.67× with 1× enzyme reaction system buffer solution; the reaction substrate was diluted to 2.5× with 1× enzyme reaction system buffer solution: 15 μl of the above diluted enzyme working solution was added to each reaction well, and 15 μl of 1× enzyme reaction system buffer solution was added to the Min well. Incubate at room temperature for 15 min; add 10 μl of the above-diluted enzyme reaction substrate to each reaction well and incubate at room temperature for 4 hours to allow the reaction to proceed fully; add 3.5×Trypsin reaction stop solution to each reaction well and incubate at 37° C. for 90 min to terminate the reaction; read the fluorescence signal at the end of the reaction on the microplate reader.
The calculation formula for the inhibition rate of the compound on HDAC6 is as follows:
Where […] is the mean of the detection values of the sample wells of each Max well (only DMSO and enzyme); […] represents the average value of the detection values of each Min well (without enzyme); Sample Signal is the mean of the detection values of each compound-treated well. The dose-effect curve was fitted using GraphPad Prism software, and the IC50 of the compound on enzyme inhibition was calculated (as shown in Table 5).

IC50 [nM]	Hill Slope	Emax [%]	SMILES
3.9	1	99	CC(COC(=O)c1cccc(COC(=O)C2COC(O)CN2C(=O)C(=O)C2=Cc3ccccc3C2)c1)c1ccccc1 (stereo not drawn) [Compound 16]
53.8	0.83	99.3	O=C(OCc1ccccc1Cl)c1ccnc(CCOC(=O)C2CCC(O)CN2C(=O)C(=O)c2ccccn2)c1 (stereo not drawn) [Compound 20]
0.75	1.1	100	Cc1ccc(C(=O)C(=O)N2CC(O)SCC2C(=O)OCc2cc(C(=O)OCc3cccc(Br)c3)ccn2)cc1 (stereo not drawn) [Compound 6]
19.4	0.8205	96.4	Cc1ccc(S(=O)(=O)N2CC(O)CCC2C(=O)OCc2ccc(C(=O)OCc3ccccc3Cl)cn2)cc1 (stereo not drawn) [Compound 9]
2.6	1.6	96	O=C(C(=O)N1CC(O)SCC1C(=O)OCCC1CCCCC1C(=O)OCc1ccccn1)c1cc2ccccc2[nH]1 (stereo not drawn) [Compound 19]
0.58	1.1	102	COc1cccc(COC(=O)c2cccc(CCOC(=O)C3CCC(O)CN3C(=O)C(=O)C3=Cc4ccccc4C3)c2)c1 (stereo not drawn) [Compound 17]
1.5	0.8	98	Cc1ccc(S(=O)(=O)N2CC(O)CCC2C(=O)OCCc2cccc(C(=O)OCc3ccccc3Cl)c2)cc1 (stereo not drawn) [Compound 10]
0.92	1	102	O=C(OCc1ccncc1)c1ccnc(CCOC(=O)C2CSC(O)CN2C(=O)C(=O)c2ccccn2)c1 (stereo not drawn) [Compound 18]

More lines, now with the values behind:

SMILES	IC50 [nM]	Hill Slope	Emax [%]
O=C(OCc1ccccn1)C1CCC(COC(=O)C2C[Se]C(O)CN2S(=O)(=O)c2ccccc2)CC1 (stereo not drawn) [Compound 2]	0.85	1.1	99
O=C(OCC1CCCCC1)c1ccc(COC(=O)C2COC(O)CN2C(=O)C(=O)c2cc3ccccc3[nH]2)nc1 (stereo not drawn) [Compound 1]	0.63	1.2	96
O=C(C(=O)N1CC(O)OCC1C(=O)OCCC1CCCCC1C(=O)OCc1ccc(Cl)cc1)c1ccccn1 (stereo not drawn) [Compound 7]	0.85	0.9	102
O=C(OCC1CCCCC1)c1ccnc(CCOC(=O)C2C[Se]C(O)CN2C(=O)C(=O)c2cccc3ccccc23)c1 (stereo not drawn) [Compound 14]	132	0.8	100
COc1ccc(COC(=O)c2ccc(CCOC(=O)C3C[Se]C(O)CN3C(=O)C(=O)c3ccncc3)nc2)cc1 (stereo not drawn) [Compound 12]	0.41	1.1	101
Cc1ccccc1S(=O)(=O)N1CC(O)CCC1C(=O)OCCc1cnccc1C(=O)OCc1ccncc1 (stereo not drawn) [Compound 4]	13.3	1.06	91.4
O=C(C(=O)N1CC(O)CCC1C(=O)OCCC1CCCCC1C(=O)OCc1cccc(Br)c1)c1cc2ccccc2[nH]1 (stereo not drawn) [Compound 11]	0.23	1	100
Cc1ccccc1C(=O)C(=O)N1CC(O)OCC1C(=O)OCc1ccccc1C(=O)OCc1ccccc1Cl (stereo not drawn) [Compound 8]	2.9	1.5	101
O=C(OCC1CCCCC1)c1ccc(COC(=O)C2CCC(O)CN2C(=O)C(=O)c2cccc3ccccc23)nc1 (stereo not drawn) [Compound 15]	5.99	0.8638	106
O=C(C(=O)N1CC(O)CCC1C(=O)OCCc1ccccc1C(=O)OCCc1ccccc1)c1ccccn1 (stereo not drawn) [Compound 13]	2.2	1.6	98
